Settings: 283.16 K, Liquid, Vibrating tube method

CCCC(=O)OCC(COC(=O)CCC)(COC(=O)CCC)COC(=O)CCC [pentaerythritol tetrabutyrate]
Settings	mass density [kg/m3]
6243.9 kPa	1062.8
6250.7 kPa	1062.7
6257.4 kPa	1062.7
6265.2 kPa	1062.8
6271.9 kPa	1062.7
6278.8 kPa	1062.7
6300.1 kPa	1062.8
6308.2 kPa	1062.8
6314.8 kPa	1062.8
6321.7 kPa	1062.7
6328.1 kPa	1062.7
6336.4 kPa	1062.8
6343.5 kPa	1062.8
6350.2 kPa	1062.8
6357.3 kPa	1062.8
6365.3 kPa	1062.7
6372 kPa	1062.8
6379.3 kPa	1062.6
6387.5 kPa	1062.7
6394.3 kPa	1062.7
6401.4 kPa	1062.9
6408.5 kPa	1062.8
6416.8 kPa	1062.8
6423.7 kPa	1062.9
6432.1 kPa	1062.8
6439.2 kPa	1062.8
6446.1 kPa	1062.8
6453.2 kPa	1062.8
6460.5 kPa	1062.8
6469.1 kPa	1062.8
6476 kPa	1062.8
6483.3 kPa	1062.8
6491.8 kPa	1062.9
6498.7 kPa	1062.8
6505.9 kPa	1062.9
6513.4 kPa	1062.8
6522.2 kPa	1062.9
6529.1 kPa	1062.9
6536.5 kPa	1062.8
6543.9 kPa	1062.9
6552.9 kPa	1062.9
6560.5 kPa	1062.9
6567.3 kPa	1062.9
6575.9 kPa	1062.8
6583.2 kPa	1062.9
6590.8 kPa	1062.9
6598.2 kPa	1062.9
6606.8 kPa	1062.9
6614.3 kPa	1062.9
6621.5 kPa	1062.9
6630.5 kPa	1062.9
6638.3 kPa	1062.9
6645.9 kPa	1062.8
6653.6 kPa	1062.9
6662.1 kPa	1063
6669.8 kPa	1062.9
6678.8 kPa	1063
6685.9 kPa	1063
6693.8 kPa	1063
6701.4 kPa	1063.1
6710.6 kPa	1063
6718.2 kPa	1062.9
6725.8 kPa	1063
6735.1 kPa	1062.8
6742.9 kPa	1063.1
6750.9 kPa	1063
6759.3 kPa	1062.9
6766.9 kPa	1062.9
6774.9 kPa	1063
6784.2 kPa	1063
6799.4 kPa	1063
6808.2 kPa	1063.1
6815.3 kPa	1063
6822.2 kPa	1063
6830 kPa	1063.1
6835.8 kPa	1063.1
6840.7 kPa	1063.1
6845.5 kPa	1063
6861.6 kPa	1063
6890.3 kPa	1063
6919.1 kPa	1063
6948.8 kPa	1063
6983.9 kPa	1063.1
7013.2 kPa	1063.2
7043.3 kPa	1063.1
7073.9 kPa	1063.2
7111.3 kPa	1063.2
7141.9 kPa	1063.2
7172.4 kPa	1063.1
7231.8 kPa	1063.2
7286.9 kPa	1063.4
7348.1 kPa	1063.3
7377.4 kPa	1063.2
7488.6 kPa	1063.5
7519.7 kPa	1063.4
7758.9 kPa	1063.6
7783.9 kPa	1063.7
7814.3 kPa	1063.5
7838.8 kPa	1063.7
7861.2 kPa	1063.7
7886.6 kPa	1063.7
7908.5 kPa	1063.6
7930.2 kPa	1063.7
7952.2 kPa	1063.7
7978.4 kPa	1063.7
8000.3 kPa	1063.7
8022.4 kPa	1063.7
8048.9 kPa	1063.8
8071.7 kPa	1063.7
8094.5 kPa	1063.8
8121.4 kPa	1063.8
8144.2 kPa	1063.9
8166.8 kPa	1063.7
8194.2 kPa	1063.8
8217.7 kPa	1063.9
8241.7 kPa	1063.9
8269.4 kPa	1063.8
8316.5 kPa	1063.8
8340.2 kPa	1063.9
8369.1 kPa	1063.9
8393.5 kPa	1063.9
8418.1 kPa	1063.9
8448 kPa	1063.9
8472.3 kPa	1064
8501.9 kPa	1064.2
8527.3 kPa	1064
8553.2 kPa	1064.1
8580.4 kPa	1064
8605.5 kPa	1064
8631.2 kPa	1064.1
8662.6 kPa	1064
8688.3 kPa	1064
8719.9 kPa	1064.1
8746.3 kPa	1064.2
8772.8 kPa	1064.2
8799 kPa	1064.1
8831.6 kPa	1064.1
8858.5 kPa	1064.2
8886.1 kPa	1064.3
8920.4 kPa	1064.2
8949 kPa	1064.2
8976.4 kPa	1064.3
9004.9 kPa	1064.3
9038.9 kPa	1064.3
9067 kPa	1064.4
9095.4 kPa	1064.4
9129.5 kPa	1064.3
9159 kPa	1064.5
9187.9 kPa	1064.3
9222.8 kPa	1064.4
9252.1 kPa	1064.4
9282.2 kPa	1064.4
9318.6 kPa	1064.4
9349.3 kPa	1064.5
9379.8 kPa	1064.5
9411 kPa	1064.4
9447.8 kPa	1064.7
9478.5 kPa	1064.7
9515.9 kPa	1064.6
9547.2 kPa	1064.6
9578.8 kPa	1064.6
9616.9 kPa	1064.6
9649.2 kPa	1064.6
9681.5 kPa	1064.6
9714.5 kPa	1064.6
9755.2 kPa	1064.8
9788.8 kPa	1064.7
9830.3 kPa	1064.6
9864.7 kPa	1064.7
9896.4 kPa	1064.8
9925.9 kPa	1064.9
9960.2 kPa	1064.8
9989.6 kPa	1064.9
10025 kPa	1064.8
10056 kPa	1064.9
10087 kPa	1064.9
10121 kPa	1065
10145 kPa	1065.1
10167 kPa	1064.9
10189 kPa	1064.9
10215 kPa	1064.9
10238 kPa	1065
10260 kPa	1065.1
10278 kPa	1064.9
10293 kPa	1065.1
10311 kPa	1065
10327 kPa	1065
10342 kPa	1065
10358 kPa	1065
10377 kPa	1065.1
10392 kPa	1065.1
10408 kPa	1065.2
10427 kPa	1065
10443 kPa	1065.1
10459 kPa	1065.2
10478 kPa	1065.1
10494 kPa	1065.2
10510 kPa	1065.3
10526 kPa	1065.2
10545 kPa	1065.3
10561 kPa	1065.2
10578 kPa	1065.2
10597 kPa	1065.2
10613 kPa	1065.3
10630 kPa	1065.3
10646 kPa	1065.2
10666 kPa	1065.2
10682 kPa	1065.2
10699 kPa	1065.3
10719 kPa	1065.4
10735 kPa	1065.3
10755 kPa	1065.2
10773 kPa	1065.3
10789 kPa	1065.4
10806 kPa	1065.3
10827 kPa	1065.4
10845 kPa	1065.2
10863 kPa	1065.3
10879 kPa	1065.4
10900 kPa	1065.5
10917 kPa	1065.4
10934 kPa	1065.4
10955 kPa	1065.4
10972 kPa	1065.4
10990 kPa	1065.3
11010 kPa	1065.4
11028 kPa	1065.5
11046 kPa	1065.4
11067 kPa	1065.5
11086 kPa	1065.4
11104 kPa	1065.4
11122 kPa	1065.5
11144 kPa	1065.5
11162 kPa	1065.7
11180 kPa	1065.5
11202 kPa	1065.6
11220 kPa	1065.5
11238 kPa	1065.6
11257 kPa	1065.4
11279 kPa	1065.6
11298 kPa	1065.7
11316 kPa	1065.6
11339 kPa	1065.7
11479 kPa	1065.6
11499 kPa	1065.8
11522 kPa	1065.7
11541 kPa	1065.8
11561 kPa	1065.7
11584 kPa	1065.8
11604 kPa	1065.8
11624 kPa	1065.8
11643 kPa	1065.8
11970 kPa	1065.9
12038 kPa	1066.1
12063 kPa	1066.2
12084 kPa	1066.1
12106 kPa	1066.2
12132 kPa	1066
12154 kPa	1066.1
12175 kPa	1066.1
12198 kPa	1066.1
12224 kPa	1066.2
12246 kPa	1066.2
12268 kPa	1066.1
12294 kPa	1066.2
12316 kPa	1066.3
12338 kPa	1066.3
12365 kPa	1066.3
12388 kPa	1066.2
12410 kPa	1066.3
12437 kPa	1066.3
12460 kPa	1066.2
12483 kPa	1066.3
12510 kPa	1066.3
12533 kPa	1066.3
12556 kPa	1066.3
12584 kPa	1066.4
12607 kPa	1066.4
12630 kPa	1066.3
12659 kPa	1066.4
12682 kPa	1066.4
12705 kPa	1066.3
12734 kPa	1066.3
12758 kPa	1066.4
12784 kPa	1066.6
12809 kPa	1066.5
12838 kPa	1066.5
12862 kPa	1066.4
12886 kPa	1066.5
12911 kPa	1066.6
12940 kPa	1066.6
12965 kPa	1066.6
12994 kPa	1066.6

Source: the NIST ThermoML archive (doi:10.1021/je060271a)
